Test results published in patent US7674486B2, “Synergistic composition for the treatment of diabetes mellitus” (Indus Biotech Pvt. Ltd., priority 2003, dated 2010).

Legend:
Male wistar rats, kidney = test: Diabetic nephropathy model (Alloxan plus left renal artery clamping); assay type: in vivo, rat
Procedure: Male wistar rats of 150-200 gram were injected Alloxan (150 mg/kg i.p.) to induce diabetes. Once the animals show blood sugar above 250 mg/dl, animals are divided in groups as mentioned below and dosing of same is started as per groups. After 7 days of dosing in test drug groups and 3 days dosing in insulin group surgery is performed. In all groups animals were anesthetized and a small midline incision was made to isolate left renal artery and clamped for 30 minutes after which animals were stitched back. This is a kidney ligation technique to induce diabetic nephropathy in experimental animals. In Group 1, complete procedure was same but no treatment is given. The animals were then allowed to recover and dosing was continued as per given in various groups till day 30th after surgery. Creatinine clearance was noted on 0th, 10th, 20th and 30th day. After 30 days animals were sacrificed and kidney was sent for histopathological evaluation. Group 1 Saline (untreated) Group 2 Test drug (low dose) Group 3 Test drug (medium dose) Group 4 Test drug (high dose) Group 5 Standard (insulin)

[1] = system: Female wistar rats, sciatic nerve; test: Partial sciatic nerve ligation: thermal hyperalgesia (hot plate); assay type: in vivo, rat; settings: 50 mg/kg, nerve ligated
Procedure: This experiment is conducted to evaluate the neuropathy effects. • 1. Partial Sciatic Nerve Ligation • 2.
(§1) Surgery:—Under ether anesthesia and aseptic conditions the right sciatic nerve was exposed at high thigh level. In sham operated animals the nerve was left intact and the wound was closed with 2 muscle suture and 3-4 skin sutures.
(§2) In experimental animals the sciatic nerve underwent partial injury. The dorsum of the nerve was carefully freed from surrounding connective tissues at a site near the trochanter just distil to the point at which the posterior biceps semitendinosus nerve branches off the common sciatic nerve. Using an irish forceps the nerve was fixed in its place by pinching the epineurium on its dorsal aspect, taking care not to press the nerve against underlying structures. An 4-0 silk suture was inserted into the nerve with ⅜ curved, reverse-cutting mini needle, and tightly ligated so that the dorsal ⅓−½ of the nerve thickness was trapped in the ligature. The wound was then closed as in sham operated rats. In all rats the left leg and sciatic nerve were untouched.
(§3) The animals were divided into following groups:—
(§4) Group 1 Control (vehicle treated) (but nerve not ligated)
(§5) Group 2 Sham treated (vehicle treated)(Surgery done but no ligation of nerve)
(§6) Group 3 Vitamin E acetate (50 mg/kg) (nerve ligated)
(§7) Group 4 Indus test drug (100 mg/kg) (nerve ligated)
(§8) Group 5 Indus test drug (200 mg/kg) (nerve ligated)
• a. Thermal hyperalgesia (TH):—This was assessed using Ugo Basile Hot Plate instrument (at 55±1° C.). Antinociceptive effects were determined according to the latency (in seconds) of limb withdrawal to the noxious thermal simulation (Ugo Basile hot plate, Versace, Italy). Cut off value of planter test was set to 22 s to prevent limb injury. The pain threshold were tested on day 0, 2, 4, 6, 8, 10, 12, 14, 21 and 28. • b. Motor function test (MFT):—Motor function was monitored by observation of spontaneous gait and hind paw posture. Each animal was placed in a plastic box with plexiglass walls and allowed to habituate for at least 5 minutes before the observation period. […] The readings were observed on day 0, 2, 15 and 30.

[2] = system: Female wistar rats, sciatic nerve; test: Partial sciatic nerve ligation: motor function test, pain scale; assay type: in vivo, rat; settings: 50 mg/kg, scale 0 nil to 5 highly severe
Procedure: This experiment is conducted to evaluate the neuropathy effects. • 1. Partial Sciatic Nerve Ligation • 2. Formalin Induced Behavioral And Thermal Hyperalgesia Experiment 1: Partial Sciatic Nerve Ligation Material and Method:— Preparation of Animals:— Animals:—Female wistar rats 175-250 gram (n=6)
as §1, §2, §3, §4, §5, §6, §7, §8
• a. Thermal hyperalgesia (TH):—This was assessed using Ugo Basile Hot Plate instrument (at 55±1° C.). Antinociceptive effects were determined according to the latency (in seconds) of limb withdrawal to the noxious thermal simulation (Ugo Basile hot plate, Versace, Italy). […] Motor function test (MFT):—Motor function was monitored by observation of spontaneous gait and hind paw posture. […] The readings were observed on day 0, 2, 15 and 30.

[3] = Comparative hypoglycemic activity of fenugreek seed powder, fenugreek components and the composition; settings: in vivo
Excerpt: The comparative results of fenugreek seed powder (whole), and the composition of the instant application are shown below to establish inventiveness of the application.
The activity was restricted to only a couple of components. Also, synergy was observed by a selective combination of three components of the composition. The same is elaborated with the help of experimental data as given below.

normal Swiss Albino mice = test: GTT in normal Swiss Albino mice (BSL); assay type: in vivo, mouse; settings: glucose 2 gm/kg i.p.; oral: Total amino acids 10 mg/kg, Trigonelline 75 mg/kg, Glyburide 10 mg/kg, Composition 30 mg/kg
Excerpt: The animals were fed in the following manner. • 1) Administration of 2 gm/kg of glucose by Inter Peritonially. • 2) Administration of the drug (Orally): [table] […] After centrifugation, the homogenate was characterized by thin layer chromatography and K^+ Ions by Biolyte analyser.

[4] = system: pancreas (potassium channel mediated insulin secretion); test: K+ ions in pancreas homogenate by Biolyte analyser; assay type: in vivo, mouse; settings: pancreas homogenate at 1 hour; oral: Total amino acids 10 mg/kg, Trigonelline 75 mg/kg, Glyburide 10 mg/kg, Composition 30 mg/kg
Procedure: EXPERIMENT 6:—The effect of the composition prepared as per Experiment 1 & 2 as well as their individual components separated on column chromatography were studied on normal Swiss Albino mice (male) in the weight range of 25-30 gms for GTT. The animals were fed in the following manner. • 1) Administration of 2 gm/kg of glucose by Inter Peritonially. • 2) Administration of the drug (Orally):
• 3) Measurement of BSL at 0 minutes & 1 hour. • 4) Immediately after blood removal at 1 hour, the animals were sacrificed by tail flicking and the pancreas was removed and homogenized using tris buffer. After centrifugation, the homogenate was characterized by thin layer chromatography and K^+ Ions by Biolyte analyser. Following are the observations:
Decreased K+ ion concentration indicates the repolarisation effect as the ATP dependant IK-ATP

With insulin: Standard in nephropathy model the “Histopathology of the kidney: cellularity and matrix” value (Male wistar rats, kidney; insulin group) was “did not show any increase in cellularity and matrix” and the “Histopathology of the kidney: tubular necrosis, interstitial fibrosis” value (Male wistar rats, kidney; insulin treated group) was “very mild”.
With `CC(=O)Oc1c(C)c(C)c2c(c1C)CCC(C)(CCC[C@H](C)CCC[C@H](C)CCCC(C)C)O2` (some centres unmarked) [Vitamin E, Vitamin E acetate] the “Thermal hyperalgesia, latency of limb withdrawal” value (from here on “Thermal hyperalgesia, latency”) ([1]; 0th day (before ligation)) was 9.51 s, the “Thermal hyperalgesia, latency” value ([1]; 2nd day) was 3.24 s and the “Thermal hyperalgesia, latency” value ([1]; 4th day) was 5.9 s. The “Thermal hyperalgesia, latency” value ([1]; 6th day) was 7.12 s, the “Thermal hyperalgesia, latency” value ([1]; 8th day) was 7.95 s and the “Thermal hyperalgesia, latency” value ([1]; 10th day) was 9.81 s. For the same compound, the “Thermal hyperalgesia, latency” value ([1]; 12th day) was 9.88 s, the “Thermal hyperalgesia, latency” value ([1]; 14th day) was 10.04 s and the “Motor function test, Pain scale” value ([2]; 0th day) was 0. The “Motor function test, Pain scale” value ([2]; 2nd day) was 2.77 and the “Motor function test, Pain scale” value ([2]; 15th day) was 1.25.
In the case of `C[n+]1cccc(C(=O)[O-])c1` [Trigonelline], the “Hypoglycemic activity (%)” value [3] is reported as 31%, the “BSL after 1 hour” value (normal Swiss Albino mice) is reported as 233 mg/dL and the “BSL at 0 hrs” value (normal Swiss Albino mice) is reported as 341 mg/dL. For the same compound, the “K+ Ions (μ Mol)” value [4] was 21.8 μ Mol.
For `COc1ccc(Cl)cc1C(=O)NCCc1ccc(S(=O)(=O)NC(=O)NC2CCCCC2)cc1` [Glyburide], the “BSL after 1 hour” value (normal Swiss Albino mice) was 251 mg/dL, the “BSL at 0 hrs” value (normal Swiss Albino mice) was 365 mg/dL and the “K+ Ions (μ Mol)” value [4] was 22.5 μ Mol.
